Data published in ChEMBL document CHEMBL1138393, “Structure-activity relationships of novel non-competitive mGluR1 antagonists: a potential treatment for chronic pain” (Bioorg Med Chem Lett, 2007).

Assay: Lipophilicity, log D of the compound
Format: physicochemical
Conditions: octanol/water
Compound CC(C)(CNC(=O)c1cnc(-c2ccccc2)cn1)c1ccccc1 has a logD of 3.4. Compound CC(C)(CNC(=O)c1cnc(N2CCC(CO)CC2)cn1)c1ccccc1 has a logD of 3.5. With CC(C)(CNC(=O)c1cncc(-c2ccccc2)n1)c1ccccc1 the logD was 2.6. CN(CCO)c1cncc(C(=O)NCC(C)(C)c2ccccc2)n1 gave a logD of 2.7. O=C(NC1CCCCCC1)c1cnc(N2CCCCC2)cn1 gave a logD of 3.9. Compound C[C@H]1CC[C@H](NC(=O)c2cnc(N3CCC(CO)CC3)cn2)CC1 has a logD of 3.3. With CC(C)(CNC(=O)c1cncc(N2CCCCC2)n1)c1ccccc1 the logD was 4.4. For CC(CN(C)C)N(C)c1cnc(C(=O)NCC(C)(C)c2ccccc2)cn1 (stereo not drawn), the logD was 2. Compound C[C@H]1CC[C@H](NC(=O)c2cnc(N3CCCCC3)cn2)CC1 has a logD of 4.4. In the case of CCCCN(C)c1cncc(C(=O)NC2CCCCCC2)n1, the logD is reported as 3.8. With CC(C)(CNC(=O)c1cncc(N[C@@H](CO)c2ccccc2)n1)c1ccccc1 the logD was 3.6. In the case of CCN(C)c1cncc(C(=O)NC2Cc3ccccc3C2)n1, the logD is reported as 3.6. For CC(C)(CNC(=O)c1cnc2ccccc2n1)c1ccccc1, the logD was 4. For CC(C)(CNC(=O)c1cnc(N2CCCCC2)cn1)c1ccccc1, the logD was 4.5. In the case of O=C(NCC1CC1)c1cncc(N2CCCN(Cc3ccccc3)CC2)n1, the logD is reported as 3. Work on O=C(NCC1CC1)c1cncc(NCCc2cccc(O)c2)n1 yielded a logD of 3.2. With CN(CCC#N)c1cnc(C(=O)NCC(C)(C)c2ccccc2)cn1 the logD was 2.9.

Assay: Permeability in artificial membrane assessed as diffusion rate by PAMPA assay
Format: ADME
Conditions: read-out: permeability
For C[C@H]1CC[C@H](NC(=O)c2cnc(N3CCC(CO)CC3)cn2)CC1, the Papp was 25.5 ×10⁻⁶ cm/s.
